Drawing on patent US10913727B2, “Modulators of the integrated stress pathway” (Calico Life Sciences LLC, priority 2016, dated 2021), this text covers EC50 for 23 compounds.

Structures are written as SMILES. Bounds are passed on as bounds.

The experiment deals with HEK293T cells carrying the ATF4 luciferase reporter. The experiment can be described thus: ATF4-Luc assay, in vitro model of Vanishing Cell White Matter Disease (VWMD). In kind it is cell-based. Conditions: Homo sapiens, HEK-293T, 1 μg/mL tunicamycin, 7 hours, One Glo luminescence. Summed up: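 Reporter cells were stably generated by retroviral transduction and puromycin selection, then seeded at 30,000 cells/well. Next day, cells received 1 μg/mL tunicamycin with 200 nM test compound for 7 h, and luciferase luminescence was read with a one-step reagent. Values reported as EC50.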
For the compound `O=C(COc1ccc(Cl)c(F)c1)NC12CCC(Nc3cnc(C(F)(F)F)cn3)(CC1)CC2` [Compound 100, 2-(4-chloro-3-fluorophenoxy)-N-(4-{[5-(trifluoromethyl)pyrazin-2-yl]amino}bicyclo[2.2.2]octan-1-yl)acetamide], the concentration giving a half-maximal response (EC50) is 250 to 1000 nM.
For `COc1ccccc1C(=O)NC12CC(NC(=O)COc3ccc(Cl)c(F)c3)(C1)C2` [Compound 529, N-{3-[2-(4-chloro-3-fluorophenoxy)acetamido]bicyclo[1.1.1]pentan-1-yl}-2-methoxybenzamide] the value was > 2000 nM; for `Cc1nc(C(=O)NC23CC(NC(=O)COc4ccc(Cl)c(F)c4)(C2)C3)cs1` [Compound 539, N-{3-[2-(4-chloro-3-fluorophenoxy)acetamido]bicyclo[1.1.1]pentan-1-yl}-2-methyl-1,3-thiazole-4-carboxamide], 50 to 250 nM; for `CC(C)(C)c1cc(C(=O)NC23CCC(NC(=O)COc4ccc(Cl)c(F)c4)(CC2)[C@@H](O)C3)on1` [Compound 581, 3-tert-butyl-N-{(3S)-4-[2-(4-chloro-3-fluorophenoxy)acetamido]-3-hydroxybicyclo[2.2.2]octan-1-yl}-1,2-oxazole-5-carboxamide], < 50 nM.
For `Cc1nnc(C(=O)NC23CC(NC(=O)COc4ccc(Cl)c(F)c4)(C2)C3)o1` [Compound 354, N-{3-[2-(4-chloro-3-fluorophenoxy)acetamido]bicyclo[1.1.1]pentan-1-yl}-5-methyl-1,3,4-oxadiazole-2-carboxamide] the value was 1000 to 2000 nM.
For `O=C(COc1ccc(Cl)c(F)c1)NC12CC(NC(=O)c3cc(O)ccn3)(C1)C2` [Compound 183, N-{3-[2-(4-chloro-3-fluorophenoxy)acetamido]bicyclo[1.1.1]pentan-1-yl}-4-hydroxypyridine-2-carboxamide] the value was 1000 to 2000 nM; for `CSc1sc(C(=O)NC23CC(NC(=O)COc4ccc(Cl)c(F)c4)(C2)C3)cc1C#N` [Compound 897, N-{3-[2-(4-chloro-3-fluorophenoxy)acetamido]bicyclo[1.1.1]pentan-1-yl}-4-cyano-5-(methylsulfanyl)thiophene-2-carboxamide], > 2000 nM; for `O=C(COc1ccc(Cl)c(F)c1)NC12CCC(NC(=O)c3ccc(N4CCCC4)cn3)(CC1)CC2O` (centres unmarked) [Compound 940, N-{4-[2-(4-chloro-3-fluorophenoxy)acetamido]-3-hydroxybicyclo[2.2.2]octan-1-yl}-5-(pyrrolidin-1-yl)pyridine-2-carboxamide], 50 to 250 nM.
For `Cn1nc(C(F)(F)F)cc1C(=O)NC12CC(NC(=O)COc3ccc(Cl)c(F)c3)(C1)C2` [Compound 582, N-{3-[2-(4-chloro-3-fluorophenoxy)acetamido]bicyclo[1.1.1]pentan-1-yl}-1-methyl-3-(trifluoromethyl)-1H-pyrazole-5-carboxamide], the EC50 fell in the range of 50 to 250 nM.
For `O=C(COc1ccc(Cl)c(F)c1)NC12CC(NC(=O)c3ccc(CO)nc3)(C1)C2` [Compound 718, N-{3-[2-(4-chloro-3-fluorophenoxy)acetamido]bicyclo[1.1.1]pentan-1-yl}-6-(hydroxymethyl)pyridine-3-carboxamide] the value was 250 to 1000 nM.
As for `O=C(COc1ccc(Cl)c(F)c1)NC12CCC(NC(=O)c3cnc(C(F)(F)F)cn3)(CC1)C[C@@H]2O` [Compound 652, N-{(3S)-4-[2-(4-chloro-3-fluorophenoxy)acetamido]-3-hydroxybicyclo[2.2.2]octan-1-yl}-5-(trifluoromethyl)pyrazine-2-carboxamide], the EC50 is < 50 nM.
For `O=C(COc1ccc(Cl)c(Cl)c1)NC12CC(NC(=O)c3cccnc3)(C1)C2` [Compound 456, N-{3-[2-(3,4-dichlorophenoxy)acetamido]bicyclo[1.1.1]pentan-1-yl}pyridine-3-carboxamide] the value was 50 to 250 nM; for `O=C(COc1ccc(Cl)c(F)c1)NC12CC(Nc3ccnc(-c4ccc(Cl)cc4)n3)(C1)C2` [Compound 427, 2-(4-chloro-3-fluorophenoxy)-N-(3-{[2-(4-chlorophenyl)pyrimidin-4-yl]amino}bicyclo[1.1.1]pentan-1-yl)acetamide], 250 to 1000 nM.
The figure for `O=C(COc1ccc(Cl)c(F)c1)NC12CC(NC(=O)c3ccco3)(C1)C2` [Compound 304, N-{3-[2-(4-chloro-3-fluorophenoxy)acetamido]bicyclo[1.1.1]pentan-1-yl}furan-2-carboxamide] is 250 to 1000 nM; for `Cc1nc(C(=O)NC23CC(NC(=O)COc4ccc(Cl)c(F)c4)(C2)C3)sc1C` [Compound 470, N-{3-[2-(4-chloro-3-fluorophenoxy)acetamido]bicyclo[1.1.1]pentan-1-yl}-4,5-dimethyl-1,3-thiazole-2-carboxamide] it is 50 to 250 nM; for `O=C(COc1ccc(Cl)c(F)c1)NC12CC(NC(=O)c3ccnc(C(=O)O)c3)(C1)C2` [Compound 280, 4-({3-[2-(4-chloro-3-fluorophenoxy)acetamido]bicyclo[1.1.1]pentan-1-yl}carbamoyl)pyridine-2-carboxylic acid] it is > 2000 nM.
For `Cc1cnc(C(=O)NC23CCC(NC(=O)COc4ccc(Cl)c(F)c4)(C2)C3)s1` [Compound 616, N-{4-[2-(4-chloro-3-fluorophenoxy)acetamido]bicyclo[2.1.1]hexan-1-yl}-5-methyl-1,3-thiazole-2-carboxamide], the EC50 was > 2000 nM.
For `COc1ccc(C(=O)NC23CC(NC(=O)COc4ccc(Cl)c(F)c4)(C2)C3)cn1` [Compound 154, N-{3-[2-(4-chloro-3-fluorophenoxy)acetamido]bicyclo[1.1.1]pentan-1-yl}-6-methoxypyridine-3-carboxamide], the EC50 was 250 to 1000 nM.
For `O=C(COc1ccc(Cl)c(F)c1)NC12CCC(NC(=O)c3cccc(C(F)(F)F)n3)(CC1)CC2O` (centres unmarked) [Compound 941, N-{4-[2-(4-chloro-3-fluorophenoxy)acetamido]-3-hydroxybicyclo[2.2.2]octan-1-yl}-6-(trifluoromethyl)pyridine-2-carboxamide], the EC50 is < 50 nM.
Regarding `O=C(COc1ccc(Cl)c(F)c1)NC12CCC(NC(=O)c3cscn3)(CC1)CC2O` (centres unmarked) [Compound 592, N-{4-[2-(4-chloro-3-fluorophenoxy)acetamido]-3-hydroxybicyclo[2.2.2]octan-1-yl}-1,3-thiazole-4-carboxamide], the concentration for a half-maximal effect (EC50) fell in the range of 50 to 250 nM.
For the compound `O=C(COc1ccc(Cl)c(F)c1)NC12CCC(NC(=O)c3cc(F)ccn3)(CC1)CC2O` (centres unmarked) [Compound 936, N-{4-[2-(4-chloro-3-fluorophenoxy)acetamido]-3-hydroxybicyclo[2.2.2]octan-1-yl}-4-fluoropyridine-2-carboxamide], the concentration for a half-maximal effect (EC50) is 50 to 250 nM.
Consider `O=C(COc1ccc(Cl)c(F)c1)NC12CCC(NC(=O)c3onc4ccccc34)(CC1)C(O)C2` (centres unmarked) [Compound 332, N-{4-[2-(4-chloro-3-fluorophenoxy)acetamido]-2-hydroxybicyclo[2.2.2]octan-1-yl}-2,1-benzoxazole-3-carboxamide], for which the EC50 is > 2000 nM.
As to `NC(=O)c1ccncc1C(=O)NC12CC(NC(=O)COc3ccc(Cl)c(F)c3)(C1)C2` [Compound 826, N^3-{3-[2-(4-chloro-3-fluorophenoxy)acetamido]bicyclo[1.1.1]pentan-1-yl}pyridine-3,4-dicarboxamide], the concentration for a half-maximal effect (EC50) was 1000 to 2000 nM.
